Assay results from ChEMBL document CHEMBL1201862, “PubChem BioAssay data set” (2004).
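Compound exposure: 48 hours, 5 concentrations, 96-well plates. GI50 = concentration required for 50% inhibition of growth.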 Active and inactive are the calls of the source. Cut-off read from the data, not from the text of the source: active = GI50 up to about 1.1 µM and inactive = higher.

How the values were obtained:
Test in all cases: DTP human tumour cell line panel, 48 h
SW-620 = tested on: SW-620
OVCAR-4 = tested on: OVCAR-4
UACC-257 = tested on: UACC-257
OVCAR-8 = tested on: OVCAR-8
A549 = tested on: A549
SK-MEL-2 = tested on: SK-MEL-2
EKVX = tested on: EKVX
HOP-62 = tested on: HOP-62
SK-MEL-28 = tested on: SK-MEL-28
SK-OV-3 = tested on: SK-OV-3
SNB-19 = tested on: SNB-19
OVCAR-5 = tested on: OVCAR-5
TK-10 = tested on: TK-10
MOLT-4 = tested on: MOLT-4
KM12 = tested on: KM12

Measured: GI50

CC(=O)Nc1ccccc1Sc1ccccc1
inactive: SW-620 > 100 µM | OVCAR-4 > 100 µM | UACC-257 > 100 µM | OVCAR-8 > 100 µM | A549 > 100 µM | SK-MEL-2 > 100 µM | EKVX > 100 µM | HOP-62 > 100 µM | SK-MEL-28 > 100 µM | SK-OV-3 > 100 µM | SNB-19 > 100 µM | OVCAR-5 > 100 µM | TK-10 > 100 µM | MOLT-4 > 100 µM | KM12 > 100 µM

CC1(Br)CC2OC3(Br)C=CC(C)(O)C2(CC1=O)C3(C)C (stereo not drawn)
inactive: SW-620 > 100 µM | OVCAR-4 > 100 µM | UACC-257 > 100 µM | OVCAR-8 > 100 µM | A549 > 100 µM | SK-MEL-2 > 100 µM | EKVX > 100 µM | HOP-62 > 100 µM | SK-MEL-28 > 100 µM | SK-OV-3 > 100 µM | SNB-19 > 100 µM | OVCAR-5 > 100 µM | TK-10 > 100 µM | MOLT-4 > 94 µM | KM12 > 100 µM

CCc1cccc(C)c1NC(=O)C(=O)Cc1nc2ccccc2o1
inactive: SW-620 > 100 µM | OVCAR-4 > 100 µM | UACC-257 > 100 µM | OVCAR-8 > 100 µM | SK-MEL-2 > 100 µM | EKVX > 100 µM | HOP-62 > 100 µM | SK-MEL-28 > 100 µM | SK-OV-3 > 100 µM | SNB-19 > 100 µM | OVCAR-5 > 100 µM | TK-10 > 100 µM | MOLT-4 > 100 µM

O=C(Cc1ccccc1)NN1C(=O)C(Cl)C1c1cc(Br)cc(Br)c1O (stereo not drawn)
inactive: SW-620 7.14 µM | OVCAR-4 13 µM | UACC-257 11.5 µM | OVCAR-8 8.87 µM | A549 15.9 µM | SK-MEL-2 15.1 µM | EKVX 7.76 µM | HOP-62 14 µM | SK-MEL-28 10.3 µM | SK-OV-3 15.1 µM | SNB-19 8.34 µM | OVCAR-5 16.1 µM | TK-10 17.8 µM | MOLT-4 2.62 µM | KM12 40.1 µM

N#CCCCCCOCCOCCOCCOCCOCCCCCC#N
inactive: SW-620 > 100 µM | OVCAR-4 > 100 µM | UACC-257 81.1 µM | OVCAR-8 > 100 µM | A549 > 100 µM | SK-MEL-2 > 100 µM | EKVX > 100 µM | HOP-62 > 100 µM | SK-MEL-28 > 100 µM | SK-OV-3 > 100 µM | SNB-19 > 100 µM | OVCAR-5 > 100 µM | TK-10 > 100 µM | MOLT-4 > 100 µM | KM12 > 100 µM

NC(=O)N1N=C2c3ccccc3OC[C@H]2[C@@H]1c1ccccc1
inactive: SW-620 4.99 µM | OVCAR-4 33.7 µM | UACC-257 10.9 µM | OVCAR-8 5.07 µM | A549 5.4 µM | SK-MEL-2 27.6 µM | EKVX 35.2 µM | HOP-62 23.8 µM | SK-MEL-28 25.5 µM | SK-OV-3 8.95 µM | SNB-19 31.6 µM | OVCAR-5 20.1 µM | TK-10 52.4 µM | MOLT-4 29.5 µM | KM12 9.31 µM

CSc1nc(-c2ccccc2)c2c(n1)-c1ccccc1CC2
inactive: SW-620 > 100 µM | OVCAR-4 > 100 µM | UACC-257 > 100 µM | OVCAR-8 > 100 µM | A549 > 100 µM | SK-MEL-2 > 100 µM | EKVX > 100 µM | HOP-62 > 100 µM | SK-MEL-28 > 100 µM | SK-OV-3 > 100 µM | SNB-19 > 100 µM | OVCAR-5 > 100 µM | TK-10 > 100 µM | MOLT-4 > 100 µM | KM12 > 100 µM

O=C(Sc1sc(=S)sc1SC(=O)c1ccccc1)c1ccccc1
inactive: SW-620 > 100 µM | OVCAR-4 > 100 µM | UACC-257 > 100 µM | OVCAR-8 83.4 µM | A549 27.6 µM | SK-MEL-2 41.4 µM | EKVX 53.8 µM | HOP-62 25.4 µM | SK-MEL-28 > 100 µM | SK-OV-3 22.9 µM | SNB-19 37.1 µM | OVCAR-5 33.1 µM | TK-10 > 100 µM | MOLT-4 > 100 µM | KM12 37.4 µM

C#CCC(N)(CO)C(=O)O (stereo not drawn)
inactive: SW-620 > 100 µM | OVCAR-4 > 100 µM | UACC-257 > 100 µM | OVCAR-8 > 100 µM | A549 > 100 µM | SK-MEL-2 > 100 µM | EKVX > 100 µM | HOP-62 > 100 µM | SK-MEL-28 > 100 µM | SK-OV-3 > 100 µM | SNB-19 > 100 µM | OVCAR-5 > 100 µM | TK-10 > 100 µM | MOLT-4 > 100 µM | KM12 > 100 µM

COCC(OC)C(CC=C(C#N)C#N)OC (stereo not drawn)
inactive: SW-620 > 100 µM | OVCAR-4 > 100 µM | UACC-257 > 100 µM | OVCAR-8 > 100 µM | A549 > 100 µM | SK-MEL-2 > 100 µM | EKVX > 100 µM | HOP-62 > 100 µM | SK-MEL-28 > 100 µM | SK-OV-3 > 100 µM | SNB-19 > 100 µM | OVCAR-5 > 100 µM | TK-10 > 100 µM | MOLT-4 > 100 µM | KM12 > 100 µM
